Data as given in the NIST ThermoML archive (doi:10.1016/j.jct.2012.02.028).

Conditions: 101.33 kPa, Crystal, Vacuum adiabatic calorimetry

O=C([O-])[O-].[Zn+2] [zinc(II) carbonate]
Conditions | molar entropy [J/K/mol]
5 K | 0.00258
10 K | 0.02006
15 K | 0.07123
20 K | 0.1881
25 K | 0.41
30 K | 0.7694
35 K | 1.284
40 K | 1.959
45 K | 2.788
50 K | 3.759
55 K | 4.862
60 K | 6.081
65 K | 7.403
70 K | 8.815
75 K | 10.3
80 K | 11.85
85 K | 13.45
90 K | 15.1
95 K | 16.78
100 K | 18.49
105 K | 20.21
110 K | 21.95
115 K | 23.7
120 K | 25.45
130 K | 28.95
140 K | 32.44
150 K | 35.9
160 K | 39.32
170 K | 42.69
180 K | 46.02
190 K | 49.28
200 K | 52.5
210 K | 55.65
220 K | 58.75
230 K | 61.8
240 K | 64.79
250 K | 67.73
260 K | 70.62
270 K | 73.48
273.15 K | 74.37
280 K | 76.29
290 K | 79.06
298.15 K | 81.28
300 K | 81.78
310 K | 84.45
320 K | 87.09
